Test results taken from publication PMC7901654, “Bioisosteric Discovery of NPA101.3, a Second-Generation RET/VEGFR2 Inhibitor Optimized for Single-Agent Polypharmacology” (Journal of Medicinal Chemistry, 2020).
“Also recorded” adds a separate entry of the source.

Columns and labels:
[1] = tested on: NIH3T3 HRAS/G12V tumors; assay: Mouse xenograft, NIH3T3 HRAS/G12V; format: in vivo
Protocol: (§1) In vivo target (RET and VEGFR2) inhibition was studied by treating animals grafted with NIH3T3 RET/C634Y cells at different doses (0.3, 1, or 3 mg/kg/day p.o.) of NPA101.3 for 2 days and then performing Western blot analysis on protein extracts. […] Then, to determine antitumorigenic activity and to better distinguish RET- and VEGFR2-mediated effects, we tested NPA101.3 in nude mice transplanted with NIH3T3 cells transformed by either RET/C634Y or HRAS/G12V. Before tumors appeared, animals were treated daily with NPA101.3 (1.0, 3.0, or 10.0 mg/kg/day) or left untreated. […] Still, VEGFR2 inhibition was detected also in RAS-driven tumors, an effect that might explain the, albeit reduced, effect of the drug on their growth (Figure S13). Importantly, as predicted, no trace of NPA101.3 demethyl metabolites was detected after 1 or 4 h from oral dosing in mice (Figure S14).
Figure 6 Effects of NPA101.3 on in vivo tumor growth. NIH3T3 cells transformed by RET/C634Y or HRAS/G12V were inoculated subcutaneously into nu/nu mice. After 4 days, animals were randomly assigned to receive for the indicated time periods the compound (1.0, 3.0, or 10 mg/kg/day) (24 mice; 8 mice/group for 1, 3, and 10 mg/kg doses) or vehicle (8 mice) by oral gavage. The average size of tumors is reported ± SD.
NPA101.3 was dissolved in 80% H2O, 19.875% Tween 20, and 0.125% xanthan gum. The formulation was stored at room temperature and vortexed prior to administration. NIH3T3 RET/C634Y (200000) or NIH3T3 HRAS/G12V (50000) cells were inoculated subcutaneously into the dorsal portion (both sides) of 6-week-old female BALB/c nu/nu mice (32 mice/cell line) (Jackson Laboratories, Bar Harbor, ME). After 4 days, before tumors had appeared, animals were randomly assigned to receive NPA101.3 (1.0, 3.0, or 10 mg/kg/day) (8 mice/group) or vehicle control (8 mice) by oral gavage. Tumor diameters were measured with caliper every 2–3 days. Tumor volumes (V) were calculated by the rotational ellipsoid formula V = A × B^2/2 (A is the axial diameter, and B is the rotational diameter). […]

[2] = LCMS plasma analysis (in vivo metabolism study); parameters: species or system mouse; details: 10 mg/kg oral, mice, 1 h and 4 h after dosing, LC-MS
Protocol: as §1, with “S14). […]” for “S14).”
After thawing, cells were maintained in culture using minimum essential medium supplemented with 10% foetal bovine serum, 1% non-essential amino acids, 1% sodium pyruvate, 2mM L-glutamine, 1% pen-strep, 15μg/ml blasticidin and 100 μg/ml hygromycin. hERG channel expression induction was obtained by adding 10 μg/ml tetracycline 48 h before the experiment. […] Current amplitude was measured and […]
Supplementary Figure S14: In vivo metabolism study. […] NPA101.3 drug peak was detected at 3.61 min (m/z = 529) at either time point. […]

CC(C)(C)c1cc(NC(=O)Cc2ccc(-n3cnc4cc(-c5ccc(S(C)(=O)=O)cc5)ccc43)cc2)no1 [NPA101.3]
formation of tumors driven by HRAS/G12V ([1]; 10 mg/kg/day oral, nu/nu mice): weakened, but did not abrogate; also recorded: reduced, but did not abrogate | RAS signaling (MAPK phosphorylation) in NIH3T3 HRAS/G12V tumors ([1]; 3 h after last dose): virtually no effect | VEGFR2 inhibition in RAS-driven tumors ([1]; 3 h after last dose): detected | demethyl metabolites in plasma [2]: no trace
